The target in the assay is T1, MtbRho (transcription termination factor Rho) (Mycobacterium tuberculosis, UniProt P9WHF3).
T1 construct: WT MtbRho, N-terminal His tag, hexamer
Nature of the assay: biochemical.

The values that follow come from paper PMC4499133, “ATP-dependent motor activity of the transcription termination factor Rho from Mycobacterium tuberculosis” (Nucleic Acids Research, 2015).

T1 sequence (P9WHF3 whole entry): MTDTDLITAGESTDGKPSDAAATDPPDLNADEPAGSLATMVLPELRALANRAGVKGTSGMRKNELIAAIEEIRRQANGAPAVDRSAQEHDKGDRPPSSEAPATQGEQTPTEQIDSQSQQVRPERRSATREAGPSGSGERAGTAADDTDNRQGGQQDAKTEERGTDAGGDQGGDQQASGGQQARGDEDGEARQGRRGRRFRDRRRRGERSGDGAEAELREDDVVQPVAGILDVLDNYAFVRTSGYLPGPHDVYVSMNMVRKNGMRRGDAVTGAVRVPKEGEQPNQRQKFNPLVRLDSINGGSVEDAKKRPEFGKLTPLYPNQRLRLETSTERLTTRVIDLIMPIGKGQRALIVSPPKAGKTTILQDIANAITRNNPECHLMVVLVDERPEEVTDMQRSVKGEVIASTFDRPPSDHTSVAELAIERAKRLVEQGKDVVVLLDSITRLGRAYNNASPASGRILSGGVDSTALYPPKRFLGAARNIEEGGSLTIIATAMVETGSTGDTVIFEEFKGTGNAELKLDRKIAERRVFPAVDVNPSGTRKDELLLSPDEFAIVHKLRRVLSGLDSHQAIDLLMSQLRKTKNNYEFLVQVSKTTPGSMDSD

Take `C=C1CCO[C@]2([C@@H](O)[C@@](C)(O)CO)NC(=O)[C@@]1(O)NC2=O` [BCM, bicyclomycin]: the IC50 was 157 ± 20 µM.
